Laboratory results taken from paper PMC11093748, “De novo identification of CD4^+ T cell epitopes” (Nature Methods, 2024).

Experiments:
TCR15 = experiment: Single SABR-II co-incubation, NFAT-GFP Jurkat; assay type: cell-based, mouse; details: TCR 15, Fig 3B, 18 h
Procedure, shortened: (§1)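 Single SABR-II constructs for putative cognate epitopes were expressed in CellTrace Violet-labelled NFAT–GFP Jurkat cells and co-incubated 1:1 (5 × 10^5 each) with TCR-expressing Jurkat cells for 16–20 h. GFP (with CD69 staining when indicated) was measured by flow cytometry. Wells with GFP above the no-TCR control were scored positive.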

TCR4 = experiment: Single SABR-II co-incubation, NFAT-GFP Jurkat; assay type: cell-based, mouse; details: TCR 4
Procedure, shortened: as §1

GSE.20D11 TCR = experiment: HLA-DQ8 SABR-II (+ HLA-A2.1 SABR) library screen, enrichment score; assay type: cell-based, human; details: combined class I and II library
Description: To test whether HLA-DQ8 SABR-II could be used for antigen discovery, we curated a list of insulin B, insulin C and HIP epitopes published by Wiles et al.[58] and cloned them into the DQ8 SABR-II backbone using the same pooled cloning strategy as the I-Ag7 SABR-II library (Supplementary Table 2). Furthermore, we combined SABR-I (the HLA-A*0201 library reported in our previous work[27]) and SABR-II libraries at a cellular level and screened against the GSE.20D11 TCR.
To generate the I-Ag7 restricted SABR library, we combined all Immune Epitope Database epitopes with a published immunopeptidome generated by Wan et al.[51]. Sequences were filtered remove all post-translational modifications except deamidation and HIPs and trimmed between 9–25 amino acid lengths. For the insulin C HIP and HLA-DQ8 library, non-contiguous epitopes from Wiles et al.[66] as well as all Immune Epitope Database epitopes were combined to generate the epitope list. Epitope sequences were back-translated using the backtranslate_fast.py script.
For SABR library screens, 3 × 10^6 NFAT–GFP Jurkat cells expressing the SABR library were labeled with CellTrace Violet (BioLegend) according to the manufacturer’s protocol before incubation with 3 × 10^6 Jurkat cells expressing the TCR of interest. These mixtures were incubated in a six-well plate for 16–20 h. Cells were stained with anti-CD69-APC-Cy7 where indicated (BioLegend) and the top 1–2% of GFP^+CD69^+ cells were sorted for genomic DNA extraction, indexing and sequencing (see below). Multiplexed assays were scaled on a per-TCR basis (for example 3 × 10^6 for each of three TCRs against 9 × 10^6 library cells). For single SABR assays, unless otherwise defined, 5 × 10^5 SABR expressing NFAT–GFP Jurkat cells (or 5KC cells) were labeled with CellTrace Violet (BioLegend) according to the manufacturer’s protocol before incubation with 5 × 10^5 TCR-expressing Jurkat cells (or 5KC cells) in a round-bottom 96-well plate for 16–20 h. Cells were stained with anti-CD69-APC-Cy7 when indicated and acquired on the Attune NxT flow cytometer (Thermo Fisher Scientific). All flow analysis was performed using FlowJo (BD). For Daudi cell co-culture, 1 × 10^6 Jurkat cells expressing the TCR of interest were incubated with 1 × 10^6 Daudi cells expressing a SABR of interest for 3 days. On day 3, cells were labeled with anti-RT1B-PE and anti-Fas-APC-Cy7 before being acquired on the Attune NxT flow cytometer.
Genomic DNA was extracted from sorted cells immediately after sorting, using the PureLink genomic DNA extraction kit (Life Technologies). The integrated SABR vectors were amplified with KOD polymerase (Millipore) and two rounds of amplification. In the first round, IDT-UD-SABR-C2-F and IDT-UD-SABR-C2-R primers were used to amplify the epitope. In the second round, UDI0001-R and UDI0001-F primers (representative of index 1) were used to add Illumina unique dual indexes (UDIs) to the amplicons. A different UDI was used for each sample. The reactions were pooled and purified with the NucleoSpin gel and PCR purification kit (Takara). The purified PCR product was checked before sequencing using 2% agarose gel and subjected to sequencing on a HiSeq4000 (Fulgent Genetics). Unaligned reads generated by the sequencer were stored in FASTQ files. FASTQ files were concatenated to generate one file for read1 and read2 each. The sequences were demultiplexed into individual indexes using demultiplex_dual.py. Epitopes were extracted and scored using epitope_extract_fastq_v1.1.py and merge_counts_split_v2.1.py. The ES was calculated using Microsoft Excel (Microsoft) workbooks.

TCR30 = experiment: Single SABR-II co-incubation, NFAT-GFP Jurkat; assay type: cell-based, mouse; details: TCR 30
Procedure, shortened: as §1

TCR37 = experiment: Single SABR-II co-incubation, NFAT-GFP Jurkat; assay type: cell-based, mouse; details: TCR 37, Fig 3B, 18 h
Procedure, shortened: as §1

TCR24 = experiment: Single SABR-II co-incubation, NFAT-GFP Jurkat; assay type: cell-based, mouse; details: TCR 24, Fig 3B, 18 h
Procedure, shortened: as §1

TCR11 = experiment: Single SABR-II co-incubation, NFAT-GFP Jurkat; assay type: cell-based, mouse; details: TCR 11
Procedure, shortened: as §1

[1] = Fig 3B, 18 h, biological replicate 1
[2] = Fig 3B, 18 h, biological replicate 2
[3] = Fig 3B, 18 h, biological replicate 3

In the case of LQTLALNAARDP, the “%GFP+CD69+ cells of SABR-NFAT-GFP-Jurkat cells” value (from here on “%GFP+CD69+ cells”) (TCR15; biological replicate 1) is reported as 39.97%, the “%GFP+CD69+ cells” value (TCR15; biological replicate 2) is reported as 41.2% and the “%GFP+CD69+ cells” value (TCR15; biological replicate 3) is reported as 48.23%. The “%GFP+CD69+ cells” value (TCR4; Ext. Data Fig. 6C, 18-20 hr, technical replicate 1) was 21.3%, the “%GFP+CD69+ cells” value (TCR4; Ext. Data Fig. 6C, 18-20 hr, technical replicate 2) was 21.3% and the “%GFP+CD69+ cells” value (TCR4; [1]) was 36.63%. For the same sequence, the “%GFP+CD69+ cells” value (TCR4; [2]) was 32.63%, the “%GFP+CD69+ cells” value (TCR4; [3]) was 39.93% and the “%GFP+CD69+ cells” value (TCR4; Fig 4B, technical replicate 1) was 25.9%. For the same sequence, the “%GFP+CD69+ cells” value (TCR4; Fig 4B, technical replicate 2) was 25.4%, the “%GFP+CD69+ cells” value (TCR4; Fig 5C, technical replicate 1) was 42.4% and the “%GFP+CD69+ cells” value (TCR4; Fig 5C, technical replicate 2) was 42.4%.

In the case of SHLVEALYLVCGERG, the “enrichment in screen (in words)” value (GSE.20D11 TCR) is reported as “enriched at a high confidence level”, the “%GFP+CD69+ cells” value (TCR30; [1]) is reported as 5.68% and the “%GFP+CD69+ cells” value (TCR30; [2]) is reported as 7.14%. For the same sequence, the “%GFP+CD69+ cells” value (TCR30; [3]) was 5.4%, the “%GFP+CD69+ cells” value (TCR30; Fig 4B, replicate 1) was 3.98% and the “%GFP+CD69+ cells” value (TCR30; Fig 4B, replicate 2) was 3.65%. For the same sequence, the “%GFP+CD69+ cells” value (TCR30; Fig 4B, replicate 3) was 3.27%, the “%GFP+CD69+ cells” value (TCR37; biological replicate 1) was 31.07% and the “%GFP+CD69+ cells” value (TCR37; biological replicate 2) was 38.77%. For the same sequence, the “%GFP+CD69+ cells” value (TCR37; biological replicate 3) was 34.13%, the “%GFP+CD69+ cells” value (TCR24; biological replicate 1) was 14.87% and the “%GFP+CD69+ cells” value (TCR24; biological replicate 2) was 17.6%. For the same sequence, the “%GFP+CD69+ cells” value (TCR24; biological replicate 3) was 16.8%, the “%GFP+CD69+ cells” value (TCR11; [1]) was 7.09% and the “%GFP+CD69+ cells” value (TCR11; [2]) was 7.41%. The “%GFP+CD69+ cells” value (TCR11; [3]) was 7.96%, the “%GFP+CD69+ cells” value (TCR11; Fig 4B, technical replicate 1) was 4.58% and the “%GFP+CD69+ cells” value (TCR11; Fig 4B, technical replicate 2) was 4.07%.
